Test results: patent US8697662B2, “Methods for treating Kaposi sarcoma” (PTC Therapeutics, Inc., priority 2009, dated 2014)

How the values were obtained:
[1] = tested on: SY5Y orthotopic xenografts; experiment: Orthotopic SY5Y neuroblastoma tumor model (kidney capsule), tumor weight; type: in vivo; conditions: 5 weeks of treatment
From the text: Experimental Design. In orthotopic tumor models, human tumor cells are implanted into the mouse in an organ that corresponds to the location from which the tumors arise. Such models may provide a better predictor of clinical efficacy than injection of tumors into the flanks of nude mice. See Hoffman, Invest. New Drugs 1999, 17(4):343-59. SY5Y neuroblastoma or SKNEP Ewing sarcoma tumor cells (1×10^6 cells/mouse) were implanted into the kidney capsule of female athymic nude mice according to published methods. See Huang et al., Proc. Natl. Acad. Sci. USA 2003, 100(13):7785-90. One week after implantation of each type of tumor, mice were divided into 2 groups and were administered a test Compound as shown in Table 21.
After 5 weeks of treatment, the mice were sacrificed, and the weights of the tumors were assessed.

[2] = Quantitative whole-body autoradiography tissue distribution of 14C-Compound #10; type: in vivo; conditions: rats, single oral 50 mg/kg
Protocol: For the QWBA, the carcasses were prepared by immediately freezing them, embedding them in chilled carboxymethylcellulose, and freezing them into blocks. Appropriate cryomicrotome sections of the blocks at 40 μm thickness were collected on adhesive tape. Mounted sections were tightly wrapped and exposed on phosphorimaging screens along with plastic embedded autoradiographic standards. Exposed screens were scanned and the autoradiographic standard image data were sampled to create a calibrated standard curve. Specified tissues, organs, and fluids were analyzed.

HT1080 cells [3] = experiment: Migration of cells out of re-plated HT1080 spheroids; type: cell-based, human
Protocol: Experimental Design. […] Pictures were then taken 48 hours to assess the migration and proliferation of the cells across the well's surface.

HT1080 cells [4] = experiment: Anchorage-independent colony formation of HT1080 cells in agar; type: cell-based, human; conditions: 10 and 50 nM, day 18; not statistically significant
Protocol: Experimental Design. HT1080 cells growing in monolayer were trypsinized, counted and suspended in a 0.35% agar noble/1× complete DMEM solution at 37° C. at a concentration of 2,500 cells/mL. One ml of this solution was layered over a semisolid base consisting of 0.5 mL of 0.75% agar noble/1× complete DMEM in a six well tissue culture plate. […] Tissue culture plates were then returned to the incubator and colonies were allowed to form. […] On day 18 the vehicle-treated wells had colonies of sufficient size to count (>50 cells/colony). At this time, for increased visualization, 1.5 mL of a 2× working volume of (3-(4,5-Dimethylthiazol-2-yl)-2,5-diphenyltetrazolium bromide, a tetrazole) (MTT, Invitrogen, Cat #C35007) was added and the plates were returned to the incubator for 2 hours until colonies were stained by conversion of the MTT to purple formazan crystals. Colonies were then visually counted under a dissecting microscope.

HT1080 xenografts = experiment: BrdU labeling of tumor cells from HT1080 xenografts in vivo; design: species or system athymic nude mice; conditions: HT1080 xenografts, 1, 2, or 3 days of treatment
Protocol: Experimental Design. HT1080 cells (5×10^6 cells/mouse) were implanted subcutaneously in male athymic nude mice.
The mice were sacrificed 3 hours later, and the tumors collected. A single cell suspension was prepared from the tumor cells. The cells were permeabilized and an antibody to BrdU was used to stain cells that had entered S phase during the labeling period. The proportion of cells actively synthesizing DNA was determined by cell sorting.

[5] = Cardiovascular safety pharmacology study in awake telemeterized dogs; type: in vivo, beagle dogs; conditions: single oral doses of 30, 60, and 120 mg/kg, male dogs
[6] = Respiratory safety pharmacology study in awake telemeterized dogs; type: in vivo, beagle dogs; conditions: single oral doses of 30, 60, and 120 mg/kg, male dogs
[7] = Oral pharmacokinetics / toxicokinetics in rats; type: in vivo, Sprague Dawley rats
Protocol: The pharmacokinetic evaluations in mice were adjuncts to the primary pharmacodynamic xenograft studies. The evaluations in rats included toxicokinetic assessments in single-dose, 7-day, and 28-day toxicology studies as well as a mass-balance study after a single oral dose of ^14C-Compound #10. The evaluations in dogs included toxicokinetic assessments in 7-day and 28-day toxicology studies. In the studies performed, rodents were dosed once daily with Compound #10 formulated in vehicle and administered via oral gavage.

[8] = In vitro plasma protein binding of 14C-radiolabeled Compound #10; type: in vitro ADME, mice, rats, dogs, monkeys, and humans; conditions: 0.05 to 50 μg/mL
CYP3A4 = molecular target: T1, CYP3A4 (Homo sapiens, UniProt P08684); experiment: CYP inhibition in human hepatic microsomes or recombinant isoenzymes: CYP3A4; type: in vitro ADME
T1 construct: host or cells: human hepatic microsomes or human recombinant isoenzymes
From the text: (§1) It is possible that in certain clinical trial subjects, such agents may need to be adjusted for dosing or replaced by alternative agents that are not metabolized by CYP2D6, particularly when such agents may have a low therapeutic index.

CYP1A2 = molecular target: T2, CYP1A2 (Homo sapiens, UniProt P05177); experiment: CYP inhibition in human hepatic microsomes or recombinant isoenzymes: CYP1A2; type: in vitro ADME
T2 construct: host or cells: human hepatic microsomes or human recombinant isoenzymes
From the text: as §1

[9] = 28-day oral toxicity study in rats with 14-day recovery; type: in vivo
Protocol: A battery of genotoxicity studies was also performed. […] The L23 vehicle was used.
Exposures were maximal at 120 mg/kg/day.

[10] = Micronucleus study in rats by the oral route; type: in vivo
Protocol: Genotoxicity was assessed in a battery of in vitro and in vivo studies that included a bacterial reverse mutation study, a chromosome aberration study in Chinese hamster ovary (CHO) cells, and a micronucleus study in rats by the oral route. The in vitro studies were performed in the presence and absence of an exogenous metabolic activation system.

[11] = Phase 1 escalating multiple-dose study in healthy volunteers: safety and tolerability; type: in vivo; conditions: through the highest dose level tested ([…] TID)
Protocol: The study was performed under the oversight of the French health authorities. The study was not performed under an IND.
Methods. The trial was a Phase 1, randomized, escalating multiple dose, single center study conducted in 2 stages.

VEGF-A = experiment: Patients with Kaposi Sarcoma: circulating serum and plasma VEGF-A levels; type: in vivo, human
From the text: Assaying secreted cytokines characteristic for KS: To measure the effect of a Compound on KS, serum and plasma may be evaluated for levels of VEGF, VEGF-C, VEGF-D, VEGF-R1, VEGF-R2, VEGF165b, P1GF, IL-6, IL-8 and IL-10 at baseline (pre-dose of a Compound on Day 1) and mid-cycle (e.g., Day 15) of cycle 1, on Day 1 of all subsequent cycles, and at the end of the study. Depending on the results of these assays, other potential serum markers characteristic for KS may also be measured.

T1 sequence (P08684 whole entry): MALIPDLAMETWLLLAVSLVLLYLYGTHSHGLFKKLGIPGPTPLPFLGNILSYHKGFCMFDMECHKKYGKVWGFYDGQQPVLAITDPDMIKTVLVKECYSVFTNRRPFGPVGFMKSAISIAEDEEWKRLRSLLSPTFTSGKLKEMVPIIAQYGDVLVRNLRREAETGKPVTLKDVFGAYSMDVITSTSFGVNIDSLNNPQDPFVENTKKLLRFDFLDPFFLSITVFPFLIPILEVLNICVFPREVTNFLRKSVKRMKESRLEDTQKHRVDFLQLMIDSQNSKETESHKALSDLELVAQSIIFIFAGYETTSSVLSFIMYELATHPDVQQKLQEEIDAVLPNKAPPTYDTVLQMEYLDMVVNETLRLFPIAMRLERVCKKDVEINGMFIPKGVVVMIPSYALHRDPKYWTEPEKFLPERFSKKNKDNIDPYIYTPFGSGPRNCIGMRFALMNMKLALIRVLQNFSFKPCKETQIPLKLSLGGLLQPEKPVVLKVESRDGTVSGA
T2 sequence (P05177 whole entry): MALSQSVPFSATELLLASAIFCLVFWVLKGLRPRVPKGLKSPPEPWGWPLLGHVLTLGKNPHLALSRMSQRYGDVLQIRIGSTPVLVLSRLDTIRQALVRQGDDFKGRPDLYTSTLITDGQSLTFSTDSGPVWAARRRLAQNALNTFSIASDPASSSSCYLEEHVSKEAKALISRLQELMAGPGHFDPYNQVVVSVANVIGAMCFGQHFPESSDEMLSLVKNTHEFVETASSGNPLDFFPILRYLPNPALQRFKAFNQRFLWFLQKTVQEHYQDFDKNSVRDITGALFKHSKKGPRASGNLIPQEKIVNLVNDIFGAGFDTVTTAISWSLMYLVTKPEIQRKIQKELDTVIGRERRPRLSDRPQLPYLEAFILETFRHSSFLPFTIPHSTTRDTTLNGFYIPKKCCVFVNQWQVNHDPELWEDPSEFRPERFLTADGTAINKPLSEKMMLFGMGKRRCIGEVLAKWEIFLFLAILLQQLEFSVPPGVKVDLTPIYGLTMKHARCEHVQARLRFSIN

COc1ccc(C2c3[nH]c4ccc(Cl)cc4c3CCN2C(=O)Oc2ccc(Cl)cc2)cc1 (racemic) [Compound #10]
tumor growth (tumor weight) (in words) [1]: completely prevented growth | blood-brain barrier penetration (in words) [2]: penetrates the blood-brain barrier | signs of toxicity [2]: no overt signs of toxicity | migration of cells out of the spheroid (in words) (HT1080 cells [3]; control spheroids re-plated in the presence of 50 nM): blocked in their ability to migrate out of the spheroid | proliferative and migratory capacity after exposure (in words) (HT1080 cells [3]; three-week exposure at 50 nM, re-plated in the absence of the compound): does not reduce either the proliferative or the migratory capacity | number of colonies formed (in words) (HT1080 cells [4]): modest trend toward a reduced number of colonies | BrdU staining of tumor cells (fraction in S phase) (in words) (HT1080 xenografts): increased BrdU staining | cardiovascular or electrocardiographic (including QT interval) parameters [5]: no meaningful changes | respiratory rate, core body temperature, arterial blood gases, arterial pH, arterial bicarbonate [6]: no dose dependent or biologically significant changes | oral bioavailability (in words) [7]: orally bioavailable | relationship between dose and plasma exposure (in words) ([7]; oral): bell-shaped curve | concentration dependence of protein binding (in words) [8]: independent of concentration | inhibition of CYP3A4 (in words) (CYP3A4): No meaningful inhibition | inhibition of CYP1A2 (in words) (CYP1A2): No meaningful inhibition | mean PT and aPTT ([9]; 40 and 120 mg/kg/day, males but not females, 28-day study): reversible increases | NOAEL at 28 days ([9]; both sexes, Sprague Dawley, rat, in vivo, rats, oral gavage): 12 mg/kg/day | dose at which exposures were maximal ([9]; rats, 12, 40, and 120 mg/kg/day, 28 days): 120 mg/kg/day | genotoxic effects [10]: no evidence of genotoxic effects | dose limiting toxicities [11]: no dose limiting toxicities were observed | circulating serum VEGF-A levels (in words) (VEGF-A; patients (FIG. 35A)): dose responsive reduction | circulating plasma VEGF-A levels (in words) (VEGF-A; patients (FIG. 35B)): dose responsive reduction
